Experimental findings from patent US9198426B2, “Use of 5 pyridin-4-yl-1,3-thiazoles for controlling phytopathogenic fungi” (Bayer Intellectual Property GmbH, priority 2008, dated 2015) are described below.

Marks after values point to notes of the source that are not given here.

A word on the chromatographic logP: it is a lipophilicity value derived from retention on a column. Low readings indicate lower lipophilicity, high ones higher lipophilicity.

The series can be described thus: physchem. Type of series: physicochemical.

Under “pH 2.7”, `O=C(c1ccc(Cl)s1)C(Br)c1ccncc1` (stereo not shown) [2-Bromo-1-(5-chloro-2-thienyl)-2-(pyridin-4-yl)ethanone] showed a chromatographic logP of 2.18.
Regarding `CCc1nc(-c2ccc(F)cc2)c(-c2ccnc(N)c2)s1` [Ex. 35, 4-[2-Ethyl-4-(4-fluorophenyl)-1,3-thiazol-5-yl]pyridine-2-amine], the chromatographic logP (pH 2.7) was 1.29.
Regarding `CCc1nc(-c2ccc(F)cc2)c(-c2ccnc(Cl)c2)s1` [Ex. 58, 2-Chloro-4-[2-ethyl-4-(4-fluorophenyl)-1,3-thiazol-5-yl]pyridine], the chromatographic logP is, setting by setting: (pH 2.7) 4.07; (pH 7.8) 4.1.
For the compound `CCc1nc(-c2ccc(F)cc2)c(-c2ccnc(NCc3ccccc3)c2)s1` [Ex. 59, N-Benzyl-4-[2-ethyl-4-(4-fluorophenyl)-1,3-thiazol-5-yl]pyridine-2-amine], the chromatographic logP (pH 2.7) is 2.32.
As to `CCc1nc(-c2ccc(F)cc2)c(-c2ccnc(NC3CC3)c2)s1` [Ex. 72, N-Cyclopropyl-4-[2-ethyl-4-(4-fluorophenyl)-1,3-thiazol-5-yl]pyridine-2-amine], the chromatographic logP runs as follows: (pH 2.7) 1.74; (pH 7.8) 3.61.
As for `CCc1nc(-c2ccc(F)cc2)c(-c2ccnc(C(=O)NC3CC3)c2)s1` [Ex. 75, N-Cyclopropyl-4-[2-ethyl-4-(4-fluorophenyl)-1,3-thiazol-5-yl]pryridine-2-carboxamide], the log p by setting is: (pH 2.7) 3.46^[b]; (pH 7.8) 3.5^[c];.
As to `CCc1nc(-c2ccc(F)cc2)c(-c2ccnc(N(C(C)=O)C3CC3)c2)s1` [Ex. 80, N-Cyclopropyl-N-{4-[2-ethyl-4-(4-fluorophenyl)-1,3-thiazol-5-yl]pyridin-2-yl}acetamide], the chromatographic logP reads like this: (pH 2.7) 2.81; (pH 7.8) 2.88.
`CCCC(=O)Nc1cc(-c2sc(CC)nc2-c2ccc(F)cc2)ccn1` [Ex. 83, N-{4-[2-Ethyl-4-(4-fluorophenyl)-1,3-thiazol-5-yl]pyridin-2-}butanamide]: the log p was 3.45^[b] (pH 2.7) and 3.58^[c]; (pH 7.8).
In the case of `CCc1nc(-c2ccc(F)cc2)c(-c2ccnc(C)c2)s1` [Ex. 96, 4-[2-Ethyl-4-(4-fluorophenyl)-1,3-thiazol-5-yl]-2-methylpyridine], the chromatographic logP (pH 2.7) stood at 1.68.
Take `Cc1cc(-c2sc(C(C)C)nc2-c2ccc(F)cc2)ccn1` [Ex. 100, 4-[4-(4-Fluorophenyl)-2-isopropyl-1,3-thiazol-5-yl]-2-methylpyridine]: the chromatographic logP runs as follows: (pH 2.7) 2.1; (pH 7.8) 4.06.
In the case of `CCc1nc(-c2ccc(Cl)s2)c(-c2ccncc2)s1` [compound 42], the log p is, setting by setting: (pH 2.7) 3.06^[b]; (pH 7.8) 3.88^[c];.
In the same order, the values of `CC(C)c1nc(-c2ccc(F)cc2)c(-c2ccncc2)s1` [compound 43] are 2.56^[b] and 3.71^[c];.
Take `Cc1nc(-c2ccc(F)cc2)c(-c2ccncc2)s1` [compound 44]: for the setting “pH 2.7”, the log p was 1.48^[b].
As to `Fc1ccc(-c2nc(Cc3ccccc3)sc2-c2ccncc2)cc1` [compound 45], for the setting “pH 2.7”, the log p was 2.94^[b].
Regarding `CC(C)(C)c1nc(-c2ccc(F)cc2)c(-c2ccncc2)s1` [compound 46], the log p (pH 2.7) was 3.29^[b].
For the compound `CCCCc1nc(-c2ccc(F)cc2)c(-c2ccncc2)s1` [compound 47], under “pH 2.7”, the log p was 3.11^[b].
On the same count and under the same terms, with `CCc1nc(-c2ccc(C)c(C)c2)c(-c2ccncc2)s1` [compound 48] the figure was 2.49^[b]; with `CCc1nc(-c2cccc(C(F)(F)F)c2)c(-c2ccncc2)s1` [compound 49], 3^[b].
For the compound `CCc1nc(-c2ccc(F)cc2)c(-c2ccnc(NC(=O)c3ccc(C)cc3)c2)s1` [compound 50], the log p (pH 2.7) was 4.48^[b].
For the compound `CCc1nc(-c2ccc(F)cc2)c(-c2ccnc(NC(=O)C(C)(C)C)c2)s1` [compound 51], under “pH 2.7”, the log p is 4.18^[b].
For `CCc1nc(-c2ccc(F)cc2)c(-c2ccnc(NC(=O)c3ccc(F)cc3)c2)s1` [compound 52], under “pH 2.7”, the log p is 4.18^[b].
For the compound `CCc1nc(-c2ccc(F)cc2)c(-c2ccnc(NC(=O)c3ccc(OC)cc3)c2)s1` [compound 53], the log p (pH 2.7) is 4.04^[b].
On the same count and under the same terms, with `CCc1nc(-c2ccc(F)cc2)c(-c2ccnc(NC(=O)C3CCCCC3)c2)s1` [compound 54] the figure was 4.54^[b]; with `CCc1nc(-c2ccc(F)cc2)c(-c2ccnc(NC(=O)CCc3ccccc3)c2)s1` [compound 55], 4.23^[b]; with `CCc1nc(-c2ccc(F)cc2)c(-c2ccnc(NC(=O)c3cccs3)c2)s1` [compound 56], 3.92^[b].
The same measure, in the same setting: the result for `CCc1nc(-c2ccc(F)cc2)c(-c2ccnc(NC(=O)c3ccsc3)c2)s1` [compound 57] reads 3.83^[b]; that for `CCc1nc(-c2ccc(F)cc2)c(-c2ccnc(Nc3ccccc3)c2)s1` [compound 60], 3.1^[b]; that for `CCc1nc(-c2ccc(F)cc2)c(-c2ccnc(NC(C)c3ccccc3)c2)s1` (stereo not shown) [compound 61], 2.39^[b].
On to `CCc1nc(-c2ccc(F)cc2)c(-c2ccnc(NCCc3ccccc3)c2)s1` [compound 62], for which, for the setting “pH 2.7”, the log p is 2.17^[b].
Regarding `CCc1nc(-c2ccc(F)cc2)c(-c2ccnc(NC3CCCC3)c2)s1` [compound 63], the log p (pH 2.7) is 1.94^[b].
In the case of `CCc1nc(-c2ccc(F)cc2)c(-c2ccnc(N3CCCC3)c2)s1` [compound 64], the log p (pH 2.7) is 2^[b].
For the compound `CCc1nc(-c2ccc(F)cc2)c(-c2ccnc(NC(=O)OC(C)(C)C)c2)s1` [compound 65], the log p (pH 2.7) was 4.63^[b].
For the compound `CCCCc1nc(-c2ccc(F)cc2)c(-c2ccnc(NC(=O)c3ccccc3)c2)s1` [compound 66], the log p (pH 2.7) is 5.07^[b].
In the case of `CCc1nc(-c2ccc(F)cc2)c(-c2ccnc(N(C)C(=O)c3ccccc3)c2)s1` [compound 67], under “pH 2.7”, the log p was 3.68^[b].
Consider `CCc1nc(-c2ccc(F)cc2)c(-c2ccnc(N(C)C(C)=O)c2)s1` [compound 68], for which the log p (pH 2.7) was 2.71^[b].
Consider `CCc1nc(-c2ccccc2)c(-c2ccnc(NC(=O)c3ccccc3)c2)s1` [compound 69], for which the log p (pH 2.7) is 3.91^[b].
Regarding `CCc1nc(-c2ccc(F)cc2)c(-c2ccnc(NC(C)COC)c2)s1` (stereo not shown) [compound 70], the log p (pH 2.7) is 1.78^[b].
For the compound `CCc1nc(-c2ccc(F)cc2)c(-c2ccnc(NC(C)CO)c2)s1` (stereo not shown) [compound 71], the log p (pH 2.7) is 1.44^[b].
Regarding `CCc1nc(-c2ccc(F)cc2)c(-c2ccnc(C(=O)N(C)CC)c2)s1` [compound 73], the log p by setting is: (pH 2.7) 2.81^[b]; (pH 7.8) 2.87^[c];.
Consider `C=CCNc1cc(-c2sc(CC)nc2-c2ccc(F)cc2)ccn1` [compound 74], for which the log p runs as follows: (pH 2.7) 1.67^[b]; (pH 7.8) 3.8^[c];.
Consider `CCNc1cc(-c2sc(CC)nc2-c2ccc(F)cc2)ccn1` [compound 76], for which the log p (pH 2.7) is 1.54^[b] and the log p (pH 7.8) is 3.64^[c];.
With `CCc1nc(-c2ccc(F)cc2)c(-c2ccnc(NCC(C)O)c2)s1` (stereo not shown) [compound 77], the log p was 1.44^[b] (pH 2.7) and 2.74^[c]; (pH 7.8).
Regarding `CCc1nc(-c2ccc(F)cc2)c(-c2ccnc(NCC(C)OC)c2)s1` (stereo not shown) [compound 78], the log p (pH 2.7) was 1.73^[b] and the log p (pH 7.8) is 3.67^[c];.
In the case of `CCc1nc(-c2ccc(F)cc2)c(-c2ccnc(NCC(F)F)c2)s1` [compound 79], the log p (pH 2.7) was 2.39^[b] and the log p (pH 7.8) is 3.76^[c];.
In the same order, the values of `CCc1nc(-c2ccc(F)cc2)c(-c2ccnc(NC(=O)COC)c2)s1` [compound 81] are 3.17^[b] and 3.21^[c];.
For `CCc1nc(-c2ccc(F)cc2)c(-c2ccnc(NC(=O)C(C)C)c2)s1` [compound 82], the log p (pH 2.7) was 3.52^[b] and the log p (pH 7.8) was 3.66^[c];.
Take `CCc1nc(-c2ccc(F)cc2)c(-c2ccnc(NC(=O)C3CCC3)c2)s1` [compound 84]: the log p is 3.68^[b] (pH 2.7) and 3.82^[c]; (pH 7.8).
Take `CCOC(=O)Nc1cc(-c2sc(CC)nc2-c2ccc(F)cc2)ccn1` [compound 85]: the log p by setting is: (pH 2.7) 3.61^[b]; (pH 7.8) 3.69^[c];.
With `CCc1nc(-c2ccc(F)cc2)c(-c2ccnc(NC(=O)C3CC3)c2)s1` [compound 86], the log p (pH 2.7) is 3.22^[b] and the log p (pH 7.8) was 3.37^[c];.
`CCc1nc(-c2ccc(F)cc2)c(-c2ccnc(NC(=O)OC)c2)s1` [compound 87]: the log p runs as follows: (pH 2.7) 3.14^[b]; (pH 7.8) 3.22^[c];.
On to `Fc1ccc(-c2nc(C(F)F)sc2-c2ccncc2)cc1` [compound 88], for which the log p is 2.48^[b] (pH 2.7) and 3.01^[c]; (pH 7.8).
Taken in the same sequence, the figures for `Fc1ccc(-c2nc(C3CC3)sc2-c2ccncc2)cc1` [compound 89] were 2.16^[b] and 3.32^[c];.
With `C=C(C)C(=O)Nc1cc(-c2sc(CC)nc2-c2ccc(F)cc2)ccn1` [compound 90], the log p (pH 2.7) is 3.6^[b] and the log p (pH 7.8) is 3.71^[c];.
Regarding `CCc1nc(-c2ccc(F)cc2)c(-c2ccnc(NS(C)(=O)=O)c2)s1` [compound 91], the log p runs as follows: (pH 2.7) 2.36^[b]; (pH 7.8) 2.18^[c];.
Taken in the same sequence, the figures for `CCc1nc(-c2ccc(F)cc2)c(-c2ccnc(N(S(C)(=O)=O)S(C)(=O)=O)c2)s1` [compound 92] were 3.23^[b] and 3.24^[c];.
On to `CCc1nc(-c2ccc(F)cc2)c(-c2ccnc(N(C(=O)OC(C)C)C(=O)OC(C)C)c2)s1` [compound 93], for which the log p was 4.5^[b] (pH 2.7) and 4.49^[c]; (pH 7.8).
As for `CCc1nc(-c2ccc(F)cc2)c(-c2ccnc(NC(=O)OC(C)C)c2)s1` [compound 94], the log p runs as follows: (pH 2.7) 4.08^[b]; (pH 7.8) 4.18^[c];.
For the compound `CCc1nc(-c2ccc(F)cc2)c(-c2ccnc(NC(=O)C3(C)CC3)c2)s1` [compound 95], the log p is 3.89^[b] (pH 2.7) and 4.03^[c]; (pH 7.8).
In the same order, the values of `CCc1nc(-c2ccc(F)cc2)c(-c2ccnc(N(C(C)=O)C(C)=O)c2)s1` [compound 97] are 2.95^[b] and 2.95^[c];.
